Data: a melting point compilation (Tetko et al.; mined from patent text by program, amines drawn as free bases though some values may be those of a salt)

Compared with COc1cc(Nc2nccc(-c3sc(NCCc4ccccc4)nc3C)n2)cc(OC)c1, COc1ccc(-c2nc3c(OC)cccc3s2)cc1 is lower in melting point: 201 to 202 °C for the first, 86 to 88 °C for the second.

Compared with Cc1oc(-c2ccccc2)nc1COc1ccc(Cn2cc(CCC(=O)O)c(O)n2)cc1, COc1ccc(Cn2ncnc2CN2C(=O)c3ccccc3C2=O)cc1 is lower in melting point: 197 to 198 °C for the first, 167 to 172 °C for the second.

First: CCOC(=O)C(C(=O)OCC)c1cc(=O)n(-c2ccccc2)c2ccccc12
Second: CCOC(=O)c1cc(-n2c(-c3ccccc3)cc3c2CCc2ccccc2-3)ccc1O
The melting point of the first is lower: 101 to 103 °C for the first, 134 to 135 °C for the second.

First: CC(C)(C)NC(=O)N1C(=O)C(C(=O)c2cccs2)c2ccc(Cl)cc21 (centres undefined)
Second: Cc1cn(C(C)(C)C(=O)N(C)C)nc1-c1ccc(Cl)cc1Cl
The melting point of the first is higher: 160 to 162 °C for the first, 110 to 111 °C for the second.

Compared with CN(C1CCS(=O)(=O)CC1)S(=O)(=O)c1ccc(Nc2ccnc(Nc3ccc(F)cc3)n2)cc1, Cc1ccc(S(=O)(=O)N2[C@H](CCCc3nc(C)no3)CC[C@@H]2c2ccc(F)cc2)cc1 (racemic) is lower in melting point: 252 °C for the first, 91 °C for the second.

First: CCc1cccc2c3c([nH]c12)C1(CC(=O)O)CC1CC3 (centres undefined)
Second: O=C(O)C1CCc2c(c3cc(F)ccc3n2C(=O)c2ccccc2)C1 (centres undefined)
The melting point of the first is lower: 154 to 156 °C for the first, 218 to 220 °C for the second.

Compared with CC(C)(C)c1cc(CCc2ccccc2NC(=O)NCCN2CCOCC2)cc(C(C)(C)C)c1O, CC(C)(C)c1cc(-c2nc(C(Cl)(Cl)Cl)no2)cc(C(C)(C)C)c1O is lower in melting point: 166 to 167 °C for the first, 100 to 102 °C for the second.

Compared with CN1CCC=C(c2cccc3[nH]ccc23)C1, CN1CCN(C2=Nc3ccccc3Cc3nccn32)CC1 is lower in melting point: 175 °C for the first, 123 to 124 °C for the second.

First: COC(=O)/C=C/C(=O)OCC(=O)N1CCOCC1
Second: COCCOc1ccc(CCCOC(=O)N2CCOCC2)c(Oc2ncc(C(F)(F)F)cc2Cl)c1
The melting point of the first is higher: 124 to 126 °C for the first, 82.3 to 82.4 °C for the second.

First: CCOC(=O)c1cnn2c1nc(OCCCN(C)C)c1cnc3c(cnn3CC)c12
Second: CCn1ncc2c3onc(-c4cccc(C)c4)c3cnc21
The melting point of the first is lower: 106 to 107 °C for the first, 122 to 123 °C for the second.

First: CC(=O)c1ccc(C=C(Cl)Cl)s1
Second: CC(=O)c1c(C)[nH]c(C(C)c2ccccc2)c1C (centres undefined)
The melting point of the first is lower: 81 to 85 °C for the first, 146 to 148 °C for the second.

First: CC1(C)C=C(c2ccncc2O)c2ccccc2O1
Second: O=C(O)c1nc(-c2ccccc2Oc2ccc(F)cc2O)no1
The melting point of the first is higher: 228 to 230 °C for the first, 127 to 128 °C for the second.

First: CCCc1c2nc(C(=O)O)cc(Cl)c2cc2c(=O)cc(C(=O)O)oc12
Second: CN1CC[C@@H](c2c(O)cc(O)c3c(=O)cc(-c4ccc(C#N)cc4Cl)oc23)[C@@H]1CO
The melting point of the first is higher: 336 to 338 °C for the first, 237 to 239 °C for the second.

First: C=CCOn1c(=O)c2cc(F)c(F)cc2n(Cc2ccccc2)c1=O
Second: O=C1NC(=O)C(Cc2cc(=O)n(Cc3ccc(Cl)cc3)c3ccccc23)S1 (centres undefined)
The melting point of the first is lower: 130 to 132 °C for the first, 142 to 144 °C for the second.

First: CC1(N)CN(c2c(F)cc3c(=O)c(C(=O)O)cn(C4CC4)c3c2F)C1
Second: CC[C@H]1[C@H](O)CN1c1cc2c(cc1F)c(=O)c(C(=O)O)cn2C1CC1 (relative stereo)
The melting point of the first is higher: 298 to 300 °C for the first, 250 to 255 °C for the second.

Compared with CC(=O)Nc1ccc(Sc2c(NCc3ccccc3)cc(C(=O)O)cc2S(N)(=O)=O)cc1, CS(=O)(=O)Nc1cc(C(=O)c2ccccc2)ccc1N is lower in melting point: 255 to 258 °C for the first, 184 to 186 °C for the second.

Compared with Cc1cc(SC(C)C)c(NC(=O)CCCSc2nc3ccccc3s2)c(SC(C)C)n1, O=c1[nH]c2cc(Cl)ccc2c(O)c1Sc1nc2ccccc2s1 is higher in melting point: 116 to 117 °C for the first, greater than 270 °C for the second.

First: COc1ccc(-c2[nH]nc3c2C(=O)c2c(NC(=O)CNCCO)cccc2-3)cc1
Second: COc1ccc(N2CCN(Cc3n[nH]c4c(Cl)cccc34)CC2)cc1
The melting point of the first is higher: 243 °C for the first, 190 to 191 °C for the second.

CCOC(=O)c1ncc2[nH]c3ccc(Oc4ccc(OC)cc4)cc3c2c1COC and COc1ccc2[nH]c(S(=O)Cc3c(N)cc(C)c(OC)c3C)nc2c1 (centres undefined) cannot be ordered by melting point: 154 °C for the first, 149 to 155 °C for the second.

Compared with CN(Cc1cccc(O)c1)c1cnc(-c2ccccc2)c(-c2ccccc2)n1, CCc1nc(=O)c2ccccc2n1Cc1ccc(-c2ccccc2C#N)cc1 is higher in melting point: 156 to 157 °C for the first, 207 to 208 °C for the second.

First: COc1cc(/C=C/C(=O)Nc2ccccc2C(=O)O)ccc1OC1CCCC1
Second: Cc1cc(C=CC(=O)COc2ccc(CC(=O)O)cc2)cc(C)c1O
The melting point of the first is lower: 96 to 98 °C for the first, 151 to 154 °C for the second.

Compared with O=C(NC1CCN(CCCOC(=O)c2ccccc2)CC1)c1ccccc1, O=C(O)CCCc1cccc(C(=O)c2ccccc2)c1 is lower in melting point: 146 to 147 °C for the first, 71 °C for the second.

First: CCCc1c(OCCCOc2ccc3ccc(OCC(=O)O)cc3c2C(C)=O)ccc(C(C)=O)c1O
Second: CCCCCc1c(/C=C/C(=O)Oc2ccc([N+](=O)[O-])cc2)oc2cc(OC)ccc12
The melting point of the first is higher: 140 to 141 °C for the first, 120 to 122 °C for the second.

First: CC1=C(OC(=O)C(C)(C)C)C2=C(O)N(I)CN(OC(=O)C(C)(C)C)C2=N1
Second: CON1CCC2(CC1)OC(=O)C(c1cc(C)ccc1C)=C2O
The melting point of the first is lower: 155 °C for the first, 205 to 208 °C for the second.

First: CCCCCC[C@H](C)COC(=O)c1ccc(-c2ccc(O)cc2)cc1
Second: CCCCc1sc2ccc([N+](=O)[O-])cc2c1C(=O)c1ccc(O)cc1
The melting point of the first is lower: 89 °C for the first, 147 °C for the second.

Compared with O=CN(Cc1cccc2ccccc12)c1cccc(NC(=O)c2cc(Cl)cc(Cl)c2)c1, CCCn1cc(Cc2ccc(C(=O)NS(=O)(=O)c3ccccc3Cl)cc2OC)c2cc(CCC(C)C(=O)N(C)C)ccc21 (centres undefined) is lower in melting point: 205 to 208 °C for the first, 95 to 98 °C for the second.

First: COCCOc1cc2ncc(C#N)c(Nc3cc(OC)c(Cl)cc3Cl)c2cc1OC
Second: COc1cnc(CSc2nc3cc(OC(F)(F)F)ccc3[nH]2)cc1OC
The melting point of the first is higher: 210 to 212 °C for the first, 92 to 93 °C for the second.

First: CN1C(=O)N(CC(COc2ccc(-c3ccncc3)cc2)N(O)C=O)C(=O)C1(C)C (centres undefined)
Second: CC(=O)Oc1ccc(Cn2ncc(-c3ccc(S(C)(=O)=O)cc3)c(-c3ccc(F)cc3)c2=O)cc1
The melting point of the first is higher: 217 to 218 °C for the first, 172 to 174 °C for the second.

Compared with COc1cc(C(=O)n2c3c(c4ccccc42)CC(C(=O)O)(C(=O)O)CC3)cc(OC)c1OC, CNC(=O)c1cc2c(nc(C)n2C)c2c1CCC1(Cc3ccccc3C1)N2 is higher in melting point: 208 °C for the first, 237 to 238 °C for the second.

Compared with CC(C)(C)c1nc2cc(N3CCOCC3)c([N+](=O)[O-])cc2s1, Fc1ccc2c(C3CCN(CCN4CCOCC4)CC3)noc2c1 is higher in melting point: 119 to 121 °C for the first, 131 to 132 °C for the second.

Compared with O=c1c(Cl)nsnc1Cl, O=[N+]([O-])c1cn(-c2cccnc2)nc1Cl is higher in melting point: 81 to 82 °C for the first, 139 to 142 °C for the second.

Compared with O=C1Nc2cccnc2N(C(=O)CCN2CCNCC2)c2ccccc21, O=C1c2ccccc2C(=O)N1CCCCn1ccnc1 is lower in melting point: 280 to 282 °C for the first, 75 to 77 °C for the second.

First: CC1(C)CC(=O)C2=C(C1)NC1=C(C(=O)CC(C)(C)C1)C2c1ccc2c(c1)OCCO2
Second: Cc1cc2c(c(C3=NNC(=O)CC3C)c1)OCC(=O)N2 (centres undefined)
The melting point of the first is higher: greater than 300 °C for the first, 252 to 254 °C for the second.

First: Cc1cc(C)c2nc3sccn3c(=O)c2c1
Second: CCOC(=O)c1c(-c2ccccc2C)c2cc(Cl)ccc2n(C)c1=O
The melting point of the first is higher: 190 to 192 °C for the first, 113 to 114 °C for the second.

First: CCc1cc([N+](=O)[O-])c(NC(CC)CC)c([N+](=O)[O-])c1COC
Second: CC(C)[Si](C)(C)CCSCCNC(=O)n1cc(F)c(=O)[nH]c1=O
The melting point of the first is lower: 28 to 29 °C for the first, 85 to 86 °C for the second.

First: CCOC(=O)C(CSC12CC3CC(CC(C3)C1)C2)NC(C)C(=O)O (centres undefined)
Second: CCOC(=O)C=Cc1nc(-c2ccc(=O)n(C(C)C)n2)c(-c2ccccc2)nc1N
The melting point of the first is lower: 68 to 72 °C for the first, 233 to 236 °C for the second.

First: Cc1ccccc1-c1cc(C#N)c[nH]1
Second: COc1ccc(Sc2cc(C(=O)O)c[nH]2)cc1
The melting point of the first is higher: 151 to 152 °C for the first, 144 to 147 °C for the second.

First: COc1ccc(/C=C/S(=O)(=O)Nc2ccc(F)cc2)cc1
Second: O=S(=O)(Cl)c1ccc(-c2cccc(F)c2)s1
The melting point of the first is higher: 115 to 117 °C for the first, 75 to 84 °C for the second.

Compared with O=S(=O)(c1ccccc1)C1CCCC2(C1)OCCO2 (centres undefined), CN(C)C(=O)OC1CCN(c2ncc(-c3ccccc3Cl)cn2)CC1 is lower in melting point: 93 to 95 °C for the first, 86 to 88 °C for the second.

Compared with CC(C)(C(=O)O)c1nc2ccc(NCCCN3CCN(C(c4ccccc4)c4ccccc4)CC3)nn2c1Cl, COC(=O)CCCc1ccc(CN2CCN(c3ccncc3)CC2)cc1 is lower in melting point: 184 to 186 °C for the first, 126 to 127 °C for the second.

First: CN(C)C(=O)n1nc2cc(Cl)ccc2c1N
Second: O=C1OCCC12Sc1ccc(Cl)cc1C2=O (centres undefined)
The melting point of the first is higher: 178 to 180 °C for the first, 143 to 144 °C for the second.

First: Cc1cc(C2(C(F)(F)F)ON=C(c3ccc(F)cc3)O2)ccc1NC(=O)c1cccc(I)c1C(=O)NC(C)C (centres undefined)
Second: Cc1cnc2c(NC(=O)c3ccccc3C(F)(F)F)cccc2c1N1CCN(C)C1=O
The melting point of the first is lower: 99 to 112 °C for the first, 182 to 191 °C for the second.

Compared with O=C(Nc1ccc(Cl)c2c(Cl)ccnc12)c1c(Cl)cccc1Cl, O=C(O)c1cccc(-c2ccc3c(c2)C(Oc2ccc(Cl)cc2Cl)CCC3)c1 (centres undefined) is lower in melting point: 243 to 247 °C for the first, 176 to 181 °C for the second.

First: CC(=O)c1ccc2nccc(OS(=O)(=O)C(F)(F)F)c2c1
Second: O=C(O)c1cc(-c2ccncn2)c[nH]c1=O
The melting point of the first is lower: 94 °C for the first, greater than 250 °C for the second.

Compared with C=CCc1cc(CNC)ccc1C#CC1(O)CN2CCC1CC2 (centres undefined), COC(=O)/C(=C/C1CCCCCC1)c1ccc(S(C)(=O)=O)c(C(F)(F)F)c1 is higher in melting point: 80 °C for the first, 151 to 156 °C for the second.

First: Nc1nc(NC2CCC(CO)C2)c2ncn(C3C=CC(CO)C3)c2n1 (centres undefined)
Second: CCCNCC1Cc2ccc(C3=NNC(=O)CC3)cc2C1 (centres undefined)
The melting point of the first is higher: 177 to 180 °C for the first, 82 to 84 °C for the second.

Compared with C#Cc1cccc(Nc2ncnc3ccc(S(=O)(=O)n4ccc(C=CC(=O)OCC)c4)cc23)c1, CCc1cc(C(F)(C(F)(F)F)C(F)(F)F)cc(C)c1NC(=O)c1cccc(N)c1 is lower in melting point: 154 to 156 °C for the first, 143 to 145 °C for the second.

Compared with CN(C)C[C@H]1CCSc2ccccc2[C@]1(O)c1cccc(O)c1 (racemic), CN1Cc2cccc(SCc3ccccc3)c2S1(=O)=O is lower in melting point: 188 to 190 °C for the first, 119 to 122 °C for the second.

First: COc1cc(OC)c2c(C)c(CCOS(C)(=O)=O)c(=O)oc2c1
Second: CCCCCCCCCCCCCCOc1ccc(CN(Cc2ccccn2)S(C)(=O)=O)cc1
The melting point of the first is higher: 170 to 172 °C for the first, 62 to 63 °C for the second.

Compound CCCCCCOc1ccc(CCC(=O)O)cc1 has a melting point of 70 to 72 °C.
